Assay results from patent publication US20120010206A1, “IMIDAZOLOPYRIDINE COMPOUNDS USEFUL FOR THE TREATMENT OF DEGENERATIVE AND INFLAMMATORY DISEASES” (priority 2006, published 2012).
pIC50: −log10 of the molar value.

Test system: MMP1 expression by complex trigger activated SFs
Assay: MMP assay: MMP1 expression (ELISA) by SFs activated with the 'complex trigger'
Assay type: cell-based
Details: Homo sapiens; SFs activated with supernatant of TNF-α-treated THP-1 cells (complex trigger), 48 hrs, FIG. 3; read-out: IC50 of reduction of MMP1 expression by SFs
Description: A 384-well format ELISA for measurement of MMP1 is developed. Various primary antibodies are tested, as well as various ELISA protocols. The following protocol is developed and validated to measure MMP1 levels in SF supernatant in 384 well plates: white Lumitrac 600 384 well plates (Greiner) are coated with 2 μg/mL anti-MMP1 antibody MAB1346 (Chemicon). The antibody is diluted in buffer 40 (1.21 g Tris base (Sigma), 0.58 g NaCl (Calbiochem) and 5 mL 10% NaN3 (Sigma) in 1 L milliQ water and adjusted to pH 8.5). After overnight incubation at 4° C., plates are washed with PBS (80 g NaCl, 2 g KCl (Sigma), 11.5 g Na2HPO4.7H2O and 2 g KH2PO4 in 10 L milliQ; pH 7.4) and blocked with 100 μL/well Casein buffer (2% Casein (VWR International) in PBS). Next day, casein buffer is removed from ELISA plates and replaced by 50 μL/well EC buffer (4 g casein, 2.13 g Na2HPO4 (Sigma), 2 g bovine albumin (Sigma), 0.69 g NaH2PO4.H2O (Sigma), 0.5 g CHAPS (Roche), 23.3 g NaCl, 4 mL 0.5 M EDTA pH 8 (Invitrogen), 5 mL 10% NaN3 in 1 L milliQ and adjusted to pH 7.0). 0.25 mM DTT (Sigma) is added to the thawed sample plates. After removal of the EC buffer, 20 μL of sample is transferred to the ELISA plates. […] Readout is performed on the Luminoscan Ascent Luminometer (Labsystems) with an integration time of 200 msec or with an Envision reader (Perkin Elmer). […]

C[C@@H]1C[C@H]2[C@@H]3CCC4=CC(=O)C=C[C@]4(C)[C@@]3(F)[C@@H](O)C[C@]2(C)[C@@]1(O)C(=O)CO [dexamethasone]
pIC50: ~9.00
